Literature values, collected in patent publication US20100203146A1, “INTERMITTENT DOSING STRATEGY FOR TREATING RHEUMATOID ARTHRITIS” (Callisto Pharmaceuticals, Inc., priority 2009, published 2010).

Experiments:
[1] = system: patients with RA; settings: often observed
[2] = system: RA patients; settings: at the administered doses
[3] = system: arthritis patients; settings: after a single dosage of 90 mg
[4] = after 14 or 28 days of daily oral dosing

Compound	response (improvement) [1]	dose-limiting toxicity [2]	tolerability ([2]; on drug for as long as one year)	area under the concentration-time curve (AUC) [4]	maximum concentration (Cmax) [4]	half-life (in man)	patient-reported relief [3]
CN(Cc1cnc2nc(N)nc(N)c2n1)c1ccc(C(=O)N[C@@H](CCC(=O)O)C(=O)O)cc1 [Methotrexate]	less than 50%						
CCCC1(CCC)CCC2(CCN(CCCN(CC)CC)C2)CC1 [Atiprimod, 2-(3-Diethylaminopropyl)-8,8-dipropyl-2-azaspiro[4,5]decane]		no observed dose-limiting toxicity	well-tolerated	lower than expected	lower than expected	~60 days	feeling better
